Earlier results on two sequences are cited in publication PMC5766898, “Eel Kisspeptins: Identification, Functional Activity, and Inhibition on both Pituitary LH and GnRH Receptor Expression” (Frontiers in Endocrinology, 2018).

Entries after “also recorded” stand apart in the source; their conditions may differ.

In series [1] the test system is type II gnrh-r. The note with it: repeated injections, juvenile female Japanese quail; cited from earlier work. From the text:
This receptor is the one increased during experimental maturation in both female and male eels ([25]). To the best of our knowledge, only a single other study investigated the effect of kisspeptin on GnRH receptor in teleost. In female striped bass at dummy run phase (ovarian development is initiated but not completed), chronic administration in vivo of both Kp1(15) and Kp2(12) induces a decrease ...

Series [2] has as its system lhβ expression by eel pituitary cells. The note with it: eel pituitary cells in primary culture; cited from earlier work. From the text:
In the eel, three Kiss receptor genes have been characterized, i.e., KissR-1, KissR-2, and KissR-3 ([19], [22]–[24]). Their expressions mainly occur in the brain, pituitary, and gonads ([19]).

In series [3] the test system is fshβ expression by eel pituitary cells. The note with it: eel pituitary cells in primary culture; cited from earlier work.
Series [4] relates to human KissR-1. More on the design: method as in PMID 26047834. The note with it: CHO cells; cited from earlier work.
The subject of series [5] is LH secretion. The settings on record: im injection, prepubertal and adult sea bass; Kp2(10) versus Kp1(10); cited from earlier work. From the text:
This paradoxical inhibitory effect contrasts with the general action of kisspeptin as an activator of puberty and reproduction, mostly at the brain level ([70]), but also directly on the pituitary [for reviews see Ref. ([71], [72])]. […] In contrast, in other studied teleosts, the action of kisspeptin is generally ...

Series [6] has as its system mouse KissR-1. More on the design: method as in PMID 26047834. The note with it: CHO cells; cited from earlier work.

Regarding “YNWNSFGLRF [human/lamprey Kp1(10), heterologous kisspeptin]”, the “effect on pituitary expression of type II gnrh-r” value in series [1] was “upregulated pituitary expression of type II”. In addition, in series [2], the “effect on lhβ expression, heterologous kisspeptins” value is on record as “can inhibit lhβ expression; also recorded: specific in vitro inhibitory effect”. The “effect on fshβ expression, heterologous kisspeptins” value in series [3] is “no effect on fshβ”.

On to “FNFNPFGLRF [sea bass Kp2(10), sea bass Kiss peptide]”, for which the “activation of human KissR-1” value in series [4] was “can efficiently activate human KissR-1”. The “potency in inducing LH secretion” value in series [5] is reported as “significantly more potent than Kp1(10) in inducing LH secretion”. Also, the “activation of mouse KissR-1” value in series [6] is listed as “not able to induce any activation”.
